Experimental findings from patent publication US10828305B2 (SHANGHAI PHARMACEUTICALS HOLDING CO., LTD., priority 2016, dated 2020) are described below.

One test addresses EGFR kinase (Homo sapiens, UniProt P00533). The test can be described thus: Enzymatic experiment on EGFR (HTRF kinEASE-TK). It counts as biochemical. To be noted: ATP 1.65 μM; read-out: Kinase IC50 (nM) in vitro EGFR. On the procedure:
(§1) Enzymatic Experiment on EGFR/ErbB2
(§2) Firstly, preparing 1× reaction buffer required for the kinase, 5× Enzymatic buffer (HEPES 20 mM pH7.0, NaN3 0.1%, BSA 0.05%, sodium orthovanadate 0.5 mM) in the HTRF kinEASE-TK kit was diluted to 1 time with deionized water, 50 nM Supplement Enzymatic buffer (SEB reagent), 1 mM MnCl2, 5 mM MgCl2 and 1 mM DTT were added. Secondly, preparing 5× compound, 10 mM test compound stock solution was diluted in multiple steps with DMSO in a 96-well compound plate to prepare 100× compound as initial concentration, which was then used as the first concentration to perform a 3-fold gradient dilution with DMSO to obtain 10 concentrations. Afterwards, 1 μl gradient dilution was added to 19 μl 1× reaction buffer to prepare 5× compound for use. Then 2 μl 5× compound was transferred from the 96 well plate into a 384-well plate. To the compound-free control wells was added with 2 μl the following liquid: 19 μl 1× reaction buffer with addition of 1 μl DMSO. To the blank control wells was added 2 μl 250 mM EDTA. The third step was enzymatic reaction, the kinase, substrate (TK Substrate-biotin) and ATP were formulated into 2.5× enzyme/substrate mixture and 2.5×ATP solution using 1× reaction buffer respectively. The final concentration of ErbB2 kinase was 0.06 ng/μl, the final concentration of ATP was 4 μM; the final concentration of EGFR kinase was 0.06 units/μl, the final concentration of ATP was 1.65 μM; 4 μl 2.5× enzyme/substrate mixture was added to a 384-well plate, which was incubated at room temperature for 5 minutes; 4 μl 2.5×ATP solution was added to each well and the mixture was allowed to react for 30 minutes at room temperature. The fourth step was termination of the reaction, HTRF Detection buffer was used to prepare a mixture of 2×TK Antibody-Eu(K) and Sa-XL665, the amount of TK Antibody-Eu(K) was 5 μl per well. After the enzymatic reaction was performed for 30 minutes, 10 μl of the above liquid was added to the 384-well plate and the mixture was allowed to react at room temperature for 1 hour. The data was measured on EnVision™, the laser of 337 nm wavelength was selected as the excitation light, RFU665 nM and RFU620 nM were measured, and […]/RFU620 nM×10000 was used as the final data for analysis.

The next test addresses ErbB2 kinase (Homo sapiens, UniProt P04626). In words: Enzymatic experiment on ErbB2 (HTRF kinEASE-TK). It counts as biochemical. Conditions: ATP 4 μM; read-out: Kinase IC50 (nM) in vitro ErbB2. On the procedure: as §1, §2

Each structure is given as a SMILES string.

Sequence of ErbB2 kinase (P04626 23-1255): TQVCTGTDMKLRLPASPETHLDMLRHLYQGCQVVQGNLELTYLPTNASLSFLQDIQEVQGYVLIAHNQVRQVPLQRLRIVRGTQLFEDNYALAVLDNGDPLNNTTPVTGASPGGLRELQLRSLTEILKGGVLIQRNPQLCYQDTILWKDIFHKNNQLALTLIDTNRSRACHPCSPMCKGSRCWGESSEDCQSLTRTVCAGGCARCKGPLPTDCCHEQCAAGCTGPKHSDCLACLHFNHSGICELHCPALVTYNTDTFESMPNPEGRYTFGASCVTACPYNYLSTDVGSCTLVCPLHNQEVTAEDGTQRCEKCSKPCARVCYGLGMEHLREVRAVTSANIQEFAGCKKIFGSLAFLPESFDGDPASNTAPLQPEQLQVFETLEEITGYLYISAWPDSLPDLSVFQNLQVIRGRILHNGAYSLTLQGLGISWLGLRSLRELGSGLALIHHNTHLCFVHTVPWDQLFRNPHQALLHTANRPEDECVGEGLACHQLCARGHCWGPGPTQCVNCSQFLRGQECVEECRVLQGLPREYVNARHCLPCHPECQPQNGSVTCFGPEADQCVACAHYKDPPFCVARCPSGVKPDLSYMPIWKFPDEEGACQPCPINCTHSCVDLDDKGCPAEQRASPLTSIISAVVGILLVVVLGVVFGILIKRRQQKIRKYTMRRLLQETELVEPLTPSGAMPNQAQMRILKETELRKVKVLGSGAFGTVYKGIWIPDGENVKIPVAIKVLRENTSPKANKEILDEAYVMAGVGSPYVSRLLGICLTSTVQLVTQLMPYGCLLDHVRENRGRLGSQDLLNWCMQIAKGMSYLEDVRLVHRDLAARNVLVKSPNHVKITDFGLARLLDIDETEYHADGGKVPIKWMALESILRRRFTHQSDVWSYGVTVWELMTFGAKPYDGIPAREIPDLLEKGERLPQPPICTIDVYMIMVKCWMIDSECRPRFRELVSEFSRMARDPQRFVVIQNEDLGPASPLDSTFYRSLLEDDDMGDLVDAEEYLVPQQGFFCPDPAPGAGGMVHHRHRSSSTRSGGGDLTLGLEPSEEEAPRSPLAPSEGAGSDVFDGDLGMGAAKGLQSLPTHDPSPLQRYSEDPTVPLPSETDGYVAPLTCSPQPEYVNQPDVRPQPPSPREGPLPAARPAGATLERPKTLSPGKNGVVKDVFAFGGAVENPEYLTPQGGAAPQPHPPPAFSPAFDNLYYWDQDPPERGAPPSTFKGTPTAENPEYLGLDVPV
Sequence of EGFR kinase (P00533 25-1210): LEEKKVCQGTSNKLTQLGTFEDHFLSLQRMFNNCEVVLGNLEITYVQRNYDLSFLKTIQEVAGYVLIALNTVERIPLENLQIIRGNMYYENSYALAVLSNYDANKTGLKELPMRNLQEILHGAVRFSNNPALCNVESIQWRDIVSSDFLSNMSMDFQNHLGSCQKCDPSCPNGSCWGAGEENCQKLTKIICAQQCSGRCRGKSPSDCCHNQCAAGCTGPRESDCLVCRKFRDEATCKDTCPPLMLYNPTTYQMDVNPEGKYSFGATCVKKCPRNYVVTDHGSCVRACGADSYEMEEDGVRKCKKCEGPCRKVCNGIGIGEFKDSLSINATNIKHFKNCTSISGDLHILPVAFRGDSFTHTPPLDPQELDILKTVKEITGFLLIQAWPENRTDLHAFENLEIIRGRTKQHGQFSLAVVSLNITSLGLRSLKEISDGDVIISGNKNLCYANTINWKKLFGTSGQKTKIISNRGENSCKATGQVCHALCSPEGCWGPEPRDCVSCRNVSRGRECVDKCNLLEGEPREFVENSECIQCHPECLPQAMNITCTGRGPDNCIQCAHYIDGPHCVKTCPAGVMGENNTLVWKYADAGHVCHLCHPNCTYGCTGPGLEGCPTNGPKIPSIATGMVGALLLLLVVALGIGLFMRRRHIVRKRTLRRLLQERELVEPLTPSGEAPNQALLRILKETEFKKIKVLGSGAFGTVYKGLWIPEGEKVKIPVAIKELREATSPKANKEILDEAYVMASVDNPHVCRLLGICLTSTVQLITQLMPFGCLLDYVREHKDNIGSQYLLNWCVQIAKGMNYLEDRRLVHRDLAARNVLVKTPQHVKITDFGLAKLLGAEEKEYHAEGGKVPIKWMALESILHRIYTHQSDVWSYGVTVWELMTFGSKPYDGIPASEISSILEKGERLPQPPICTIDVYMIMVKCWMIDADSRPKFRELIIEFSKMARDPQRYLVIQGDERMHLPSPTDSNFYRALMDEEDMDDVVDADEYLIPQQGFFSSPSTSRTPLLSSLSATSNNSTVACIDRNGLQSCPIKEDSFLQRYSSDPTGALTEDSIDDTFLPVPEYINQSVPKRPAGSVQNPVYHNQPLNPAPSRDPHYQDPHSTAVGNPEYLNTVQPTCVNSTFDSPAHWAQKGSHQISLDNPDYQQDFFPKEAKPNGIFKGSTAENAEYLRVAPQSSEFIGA

By IC50 is commonly meant the concentration that gives 50% inhibition. For the compound `Cc1cc(Nc2ncnc3ccc(NC4=NC(C)(C)CO4)cc23)ccc1Oc1ccn2nccc2n1` [reference compound], the IC50 stood at 82.7 nM on EGFR kinase and 49.4 nM at ErbB2 kinase.
For `Cc1cc(Nc2ncnc3ccc(NC(=O)OC[C@@H]4COCCN4)cc23)ccc1Oc1cc2nncn2cn1` [Embodiment 20, morpholin-3-ylmethyl (S)-(4-((4-([1,2,4]triazolo[4,3-c]pyrimidin-7-yloxy)-3-methylphenyl)amino)quinazolin-6-yl)carbamate] the same measures were 40.6 nM and 4.3 nM.
On the same counts, the results for `Cc1cc(Nc2ncnc3ccc(NC(=S)NCC(C)(C)N)cc23)ccc1Oc1cc2nncn2cn1` [Embodiment 18, 1-(4-((4-([1,2,4]triazolo[4,3-c]pyrimidin-7-yloxy)-3-methylphenyl)amino)quinazolin-6-yl)-3-(2-amino-2-methylpropyl)thiourea] are 79.5 nM and 13.2 nM.
On the same counts, the results for `C=CC(=O)N1CC2(COC(Nc3ccc4ncnc(Nc5ccc(Oc6cc7nncn7cn6)c(C)c5)c4c3)=N2)C1` [Embodiment 29, 1-(6-((4-((4-([1,2,4]triazolo[4,3-c]pyrimidin-7-yloxy)-3-methylphenyl)amino)quinazolin-6-yl)amino)-7-oxa-2,5-diazaspiro[3.4]oct-5-en-2-yl)prop-2-en-1-one] are 41.8 nM and 3.6 nM.
With `Cc1cc(Nc2ncnc3ccc(NC4=NC(C)(C)CO4)cc23)ccc1Oc1ccc2nncn2n1` [reference compound], the results for the 50% inhibitory concentration (IC50) on EGFR kinase and on ErbB2 kinase were 557 nM and 935 nM, respectively.
On the same counts, the results for `Cc1cc(Nc2ncnc3ccc(NC(=S)NC(C)(C)CNC(=O)OC(C)(C)C)cc23)ccc1Oc1cc2nncn2cn1` [Embodiment 11, tert-butyl (2-(3-(4-((4-([1,2,4]triazolo[4,3-c]pyrimidin-7-yloxy)-3-methylphenyl)amino)quinazolin-6-yl)thioureido)-2-methylpropyl)carbamate] are > 3330 nM and 58.1 nM.
For `Cc1cc(Nc2ncnc3ccc(NC(=O)N4CCOCC4)cc23)ccc1Oc1cc2nncn2cn1` [Embodiment 6] the same measures were 1890 nM and 24.8 nM.
On the same counts, the results for `Cc1cc(Nc2ncnc3ccc(NC(=O)Nc4cc(C)n(C(=O)OC(C)(C)C)n4)cc23)ccc1Oc1cc2nncn2cn1` [Embodiment 69, tert-butyl 3-(3-(4-((4-([1,2,4]triazolo[4,3-c]pyrimidin-7-yloxy)-3-methylphenyl)amino)quinazolin-6-yl)ureido)-5-methyl-1H-pyrazol-1-carbamate] are 92.7 nM and 7 nM.
For `Cc1cc(Nc2ncnc3ccc(NC4=NC(C)(C)CO4)cc23)ccc1Oc1ncn2cnnc2c1O` [Embodiment 102, 7-(4-((6-((4,4-dimethyl-4,5-dihydrooxazol-2-yl)amino)quinazolin-4-yl)amino)-2-methylphenoxy)-[1,2,4]triazolo[4,3-c]pyrimidin-8-ol], the IC50 on EGFR kinase is 11.4 nM; at ErbB2 kinase, 4.5 nM.
Take `Cc1cc(Nc2ncnc3ccc(NC(=O)CC#N)cc23)ccc1Oc1cc2nncn2cn1` [Embodiment 37, N-(4-((4-([1,2,4]triazolo[4,3-c]pyrimidin-7-yloxy)-3-methylphenyl)amino)quinazoline-6-yl)-2-cyanoacetamide]: the IC50 at EGFR kinase worked out at 45.2 nM; at ErbB2 kinase, 4.8 nM.
For `Cc1cc(Nc2ncnc3ccc(/C=C/C(=O)NOCCO)cc23)ccc1Oc1cc2nncn2cn1` the same measures were 82.7 nM and 22.1 nM.
On the same counts, the results for `COc1cc2ncnc(Nc3ccc(Oc4cc5nncn5cn4)c(C)c3)c2cc1OC1CCNCC1` [Embodiment 40, N-(4-([1,2,4]triazolo[4,3-c]pyrimidin-7-yloxy)-3-methylphenyl)-7-methoxy-6-(piperidin-4-yloxy)quinazolin-4-amine] are 12.7 nM and 6.9 nM.
For `Cc1cc(Nc2ncnc3ccc(NC(=S)NCC(C)(C)O)cc23)ccc1Oc1cc2nncn2cn1` [Embodiment 113, 1-(4-((4-([1,2,4]triazolo[4,3-c]pyrimidin-7-yloxy)-3-methylphenyl)amino)quinazolin-6-yl)-3-(2-hydroxy-2-methylpropyl)thiourea] the same measures were 170 nM and 9.4 nM.
`Cc1cc(Nc2ncnc3ccc(NC(=O)c4cnoc4C)cc23)ccc1Oc1cc2nncn2cn1` [Embodiment 39, N-(4-((4-([1,2,4]triazolo[4,3-c]pyrimidin-7-yloxy)-3-methylphenyl)amino)quinazoline-6-yl)-5-methylisoxazole-4-carboxamide]: the figures for the IC50 on EGFR kinase and on ErbB2 kinase were 20 nM and 1.8 nM, respectively.
For the compound `Cc1cc(Nc2ncnc3ccc(NC4=NCC5(CCNCC5)O4)cc23)ccc1Oc1cc2nncn2cn1` [Embodiment 28, N^4-(4-([1,2,4]triazolo[4,3-c]pyrimidin-7-yloxy)-3-methylphenyl)-N^6-(1-oxa-3,8-diazaspiro[4.5]dec-2-en-2-yl)quinazoline-4,6-diamine], the values for the half-inhibitory concentration (IC50) at EGFR kinase and on ErbB2 kinase were 17.7 nM and 4.79 nM, respectively.
For `Cc1cc(Nc2ncnc3ccc(NC4=NCC(F)(F)CO4)cc23)ccc1Oc1cc2nncn2cn1` [Embodiment 43, N^4-(4-([1,2,4]triazolo[4,3-c]pyrimidin-7-yloxy)-3-methylphenyl)-N^6-(5,5-difluoro-5,6-dihydro-4H-1,3-oxazin-2-yl)quinazoline-4,6-diamine] the same measures were 69.7 nM and 9.26 nM.
Consider `C=CC(=O)N1CCC2(CC1)CN=C(Nc1ccc3ncnc(Nc4ccc(Oc5cc6nncn6cn5)c(C)c4)c3c1)O2` [Embodiment 114, 1-(2-((4-((4-([1,2,4]triazolo[4,3-c]pyrimidin-7-yloxy)-3-methylphenyl)amino)quinazolin-6-yl)amino)-1-oxa-3,8-diazaspiro[4,5]dec-2-en-8-yl)-2-acrylamide], for which the IC50 was determined as 623 nM at EGFR kinase and 24.5 nM on ErbB2 kinase.
Take `CC1(C)COC(Nc2ccc3ncnc(Nc4ccc(Oc5cc6nncn6cn5)c(CO)c4)c3c2)=N1` [Embodiment 89, N^4-(3-hydroxymethyl-4-([1,2,4]triazolo[4,3-c]pyrimidin-7-yloxy)phenyl)-N^6-(4,4-dimethyl-4,5-dihydrooxazol-2-yl)quinazolin-4,6-diamine]: the IC50 was 167 nM at EGFR kinase and 8.5 nM at ErbB2 kinase.
As for `Cc1cc(Nc2ncnc3ccc(NC4=NC(C)(C)CO4)cc23)ccc1Oc1cc2ncnn2cn1` [Embodiment 2, N^4-(4-([1,2,4]triazolo[1,5-c]pyrimidin-7-yloxy)-3-methylphenyl)-N^6-(4,4-dimethyl-4,5-dihydrooxazol-2-yl)quinazoline-4,6-diamine], the figures for the concentration for half-maximal inhibition (IC50) on EGFR kinase and on ErbB2 kinase were 230 nM and 16.7 nM, respectively.
On the same counts, the results for `Cc1cc(Nc2ncnc3ccc(NC(=O)/C(C#N)=C/C4CC4)cc23)ccc1Oc1cc2nncn2cn1` [Embodiment 85, (E)-N-(4-((4-([1,2,4]triazolo[4,3-c]pyrimidin-7-yloxy)-3-methylphenyl)amino)quinazolin-6-yl)-2-cyano-3-cyclopropylacrylamide] are 14.9 nM and 2.2 nM.
